Experimental data from patent publication US10072096B2, “Modified glycoprotein, protein-conjugate and process for the preparation thereof” (SynAffix B.V., priority 2013, dated 2018).

Assay: Stability studies of succinimides 67-69 in PBS with or without glutathione, product ratio by LC-MS
Type: physicochemical
Details: 37° C.
Protocol: One of succinimide conjugates 67-69 (1 mg) was dissolved in DMF (400 μL) followed by the addition of buffer solution 1, 2 or 3 (800 μL). Buffer solution 1 is PBS, buffer solution 2 is PBS+1 mM glutathione (GSH, reduced) and buffer solution 3 is PBS+1 mM glutathione (oxidized). Final concentration of glutathione (through dilution with DMF) is […]. The samples were incubated at 37° C. and measured in time. Ratio of products was determined by LC-MS.

[1] = 48 h, buffer 2 (PBS+1 mM glutathione, reduced; final 0.71 mM)
[2] = 48 h, buffer 3 (PBS+1 mM glutathione, oxidized; final 0.71 mM)
[3] = 120 h, buffer 2 (PBS+1 mM glutathione, reduced; final 0.71 mM)
[4] = 120 h, buffer 3 (PBS+1 mM glutathione, oxidized; final 0.71 mM)

SMILES: O=C(CCCN1C(=O)CC(SCC(=O)NCc2ccccc2)C1=O)NCCOCCOCCNC(=O)c1ccc2ccc3cccc4ccc1c2c34 (stereo not drawn) [Compound 67]
- Relative ratio: GS adduct (glutathione adduct formed by reverse Michael, then GSH addition) (48 h, buffer 1 (PBS)): 0
- Relative ratio: Hydro pro (hydrolyzed succinimide) (48 h, buffer 1 (PBS)): 43
- Relative ratio: Succinimide (starting succinimide) (48 h, buffer 1 (PBS)): 57
- Relative ratio: GS adduct (glutathione adduct formed by reverse Michael, then GSH addition) [1]: 41
- Relative ratio: Hydro pro (hydrolyzed succinimide) [1]: 18
- Relative ratio: Succinimide (starting succinimide) [1]: 41
- Relative ratio: GS adduct (glutathione adduct formed by reverse Michael, then GSH addition) [2]: 31
- Relative ratio: Hydro pro (hydrolyzed succinimide) [2]: 12
- Relative ratio: Succinimide (starting succinimide) [2]: 57
- Relative ratio: GS adduct (glutathione adduct formed by reverse Michael, then GSH addition) [3]: 52
- Relative ratio: Hydro pro (hydrolyzed succinimide) [3]: 38
- Relative ratio: Succinimide (starting succinimide) [3]: 3
- Relative ratio: GS adduct (glutathione adduct formed by reverse Michael, then GSH addition) [4]: 59
- Relative ratio: Hydro pro (hydrolyzed succinimide) [4]: 28
- Relative ratio: Succinimide (starting succinimide) [4]: 9

SMILES: O=C(CCCN1C(=O)CC(SCCC(=O)NCc2ccccc2)C1=O)NCCOCCOCCNC(=O)c1ccc2ccc3cccc4ccc1c2c34 (stereo not drawn) [Compound 68]
- Relative ratio: GS adduct (glutathione adduct formed by reverse Michael, then GSH addition) (48 h, buffer 1 (PBS)): 0
- Relative ratio: Hydro pro (hydrolyzed succinimide) (48 h, buffer 1 (PBS)): 21
- Relative ratio: Succinimide (starting succinimide) (48 h, buffer 1 (PBS)): 79
- Relative ratio: GS adduct (glutathione adduct formed by reverse Michael, then GSH addition) [1]: 9
- Relative ratio: Hydro pro (hydrolyzed succinimide) [1]: 16
- Relative ratio: Succinimide (starting succinimide) [1]: 75
- Relative ratio: GS adduct (glutathione adduct formed by reverse Michael, then GSH addition) [2]: 7
- Relative ratio: Hydro pro (hydrolyzed succinimide) [2]: 13
- Relative ratio: Succinimide (starting succinimide) [2]: 80
- Relative ratio: GS adduct (glutathione adduct formed by reverse Michael, then GSH addition) (120 h, buffer 1 (PBS)): 0
- Relative ratio: Hydro pro (hydrolyzed succinimide) (120 h, buffer 1 (PBS)): 53
- Relative ratio: Succinimide (starting succinimide) (120 h, buffer 1 (PBS)): 47
- Relative ratio: GS adduct (glutathione adduct formed by reverse Michael, then GSH addition) [3]: 17
- Relative ratio: Hydro pro (hydrolyzed succinimide) [3]: 41
- Relative ratio: Succinimide (starting succinimide) [3]: 42
- Relative ratio: GS adduct (glutathione adduct formed by reverse Michael, then GSH addition) [4]: 16
- Relative ratio: Hydro pro (hydrolyzed succinimide) [4]: 35
- Relative ratio: Succinimide (starting succinimide) [4]: 49

SMILES: O=C(CCCN1C(=O)CC(SCCCC(=O)NCc2ccccc2)C1=O)NCCOCCOCCNC(=O)c1ccc2ccc3cccc4ccc1c2c34 (stereo not drawn) [Compound 69]
- Relative ratio: GS adduct (glutathione adduct formed by reverse Michael, then GSH addition) (48 h, buffer 1 (PBS)): 0
- Relative ratio: Hydro pro (hydrolyzed succinimide) (48 h, buffer 1 (PBS)): 25
- Relative ratio: Succinimide (starting succinimide) (48 h, buffer 1 (PBS)): 75
- Relative ratio: GS adduct (glutathione adduct formed by reverse Michael, then GSH addition) [1]: 6
- Relative ratio: Hydro pro (hydrolyzed succinimide) [1]: 14
- Relative ratio: Succinimide (starting succinimide) [1]: 79
- Relative ratio: GS adduct (glutathione adduct formed by reverse Michael, then GSH addition) [2]: 4
- Relative ratio: Hydro pro (hydrolyzed succinimide) [2]: 11
- Relative ratio: Succinimide (starting succinimide) [2]: 85
- Relative ratio: GS adduct (glutathione adduct formed by reverse Michael, then GSH addition) (120 h, buffer 1 (PBS)): 0
- Relative ratio: Hydro pro (hydrolyzed succinimide) (120 h, buffer 1 (PBS)): 63
- Relative ratio: Succinimide (starting succinimide) (120 h, buffer 1 (PBS)): 37
- Relative ratio: GS adduct (glutathione adduct formed by reverse Michael, then GSH addition) [3]: 12
- Relative ratio: Hydro pro (hydrolyzed succinimide) [3]: 39
- Relative ratio: Succinimide (starting succinimide) [3]: 49
- Relative ratio: GS adduct (glutathione adduct formed by reverse Michael, then GSH addition) [4]: 10
- Relative ratio: Hydro pro (hydrolyzed succinimide) [4]: 33
- Relative ratio: Succinimide (starting succinimide) [4]: 57
